# Measured values from patent US20220280557A1, “Metabolic Reprogramming of Immune Cells for the Treatment or Prevention of Diseases and Disorders” (Arizona Board of Regents on behalf of Arizona State …, priority 2019, published 2022).
# Assays:
# [1] = tested on: glycolysis (ECAR) in BMDCs; experiment: Extracellular flux assay (ECAR); type: cell-based
# Method: Reduction in CD86 expression by inhibiting glycolysis in DCs can affect pro-inflammatory DC activation in the presence of lipopolysaccharide (LPS), which is used to mimic inflammation in vitro (FIG. 5A). Therefore, it was tested if PFK15 by itself can block glycolysis in bone marrow-derived DCs (BMDCs) in the presence or absence of LPS. To assess this, the extracellular acidification rate (ECAR) of BMDCs was determined by extracellular flux assays. BMDCs treated with LPS only and no treatment were used as controls.
# To test this, extracellular flux assays were used, and pre-activated DCs with LPS and no treatment were used as controls.
# [2] = Release of PFK15 from polymeric particles (plate reader); type: physicochemical; details: from paKG polymeric particles
# Method: (§1) Another set of polymeric particles were generated using water-oil-water emulsion encapsulating bovine collagen type II (bc2—antigen) in the presence of PFK15 in the particles. Percentage encapsulation efficiency (EE) and percentage loading (μg of drug per mg of particles) for bc2, and PFK15 was determined using BCA assay, and absorbance spectrophotometer (plate reader), respectively (Table 1). Moreover, the release of PFK15 were studied using a plate reader, and it was determined that the polymeric particles released the drug in a sustained manner over a period of 30 days.
# [3] = Encapsulation efficiency and loading (BCA assay, absorbance spectrophotometer); type: physicochemical; details: for % EE: Table 1, encapsulated in paKG particles; for % loading: Table 1, μg of drug per mg of particles
# Method: In one embodiment, the metabolite-based polymer or polymeric particle has at least one of high loading and high encapsulation efficiency of the at least one therapeutic agent. Encapsulation efficiency is the percentage of drug that is successfully entrapped into a polymeric particle. In one embodiment, encapsulation efficiency (% EE) is calculated by (total drug added—free non-entrapped drug) divided by the total drug added. Loading capacity is the amount of drug loaded per unit weight of a polymeric particle, indicating the percentage of mass of the polymeric particle that is due to the encapsulated drug. In one embodiment, loading capacity (% LC) can be calculated by the amount of total entrapped drug divided by the total polymeric particle weight. In one embodiment, the polymeric particle has about 50% to about 100% encapsulation efficiency of the at least one therapeutic agent. In one embodiment, the polymeric particle has about 60% to about 100% encapsulation efficiency of the at least one therapeutic agent.
# as §1
# [4] = tested on: BMDCs; experiment: CD86 / MHCII expression in BMDCs by flow cytometry; type: cell-based
# Method: Next, it was assessed if the changes in BMDC glycolytic rates can affect surface co-stimulatory CD86 expression in BMDCs, using flow cytometry. In this study, pro-inflammatory DCs were defined as the frequency of […].
# Since DCs indeed phagocytose paKG-based MPs in vivo, it was hypothesized that the observed reduction in paw swelling in the CIA mice treated with paKG(PFK15+bc2) MPs, may be due to the paKG(PFK15+bc2) MPs modulating DC function (FIG. 8A). Therefore, first effect of paKG(PFK15+bc2) MPs on in vitro cultured BMDCs in the form of altered CD86, MHCII, IL-10, IL-12p70 and TNFα expression in CD11c^+ cells was tested.
# [5] = with and without LPS, vs LPS and no treatment
period of sustained release of PFK15 [2],percentage encapsulation efficiency of PFK15 within paKG MPs ([3]; paKG(PFK15) MPs),percentage loading efficiency of PFK15 ([3]; per mg of paKG MPs),Molecule,"lowering of glycolysis (ECAR) ([1]; in the presence of LPS, vs LPS alone)","ECAR in BMDCs ([1]; without LPS, vs no treatment)",% EE [3],% loading [3],"frequency of pro-inflammatory BMDC populations ([4]; in the absence of LPS, vs no treatment)","decrease of frequency of CD86+MHCII+ of CD11c+ BMDCs ([4]; in the presence of LPS, vs LPS)","CD86 expression in CD11c+ cells [4, 5]","anti-inflammatory BMDC populations [4, 5]",percentage encapsulation efficiency of bc2 ([3]; paKG(PFK15+bc2) MPs),"percentage loading efficiency of bc2 ([3]; per mg of MPs, paKG(PFK15+bc2) MPs)"
30 days,68±17%,2 ± 1 µg/mg,"O=C(C=Cc1ccc2ccccc2n1)c1ccncc1 [PFK15, 1-(4-pyridinyl)-3-(2-quinolinyl)-2-propen-1-one]",60%,did not significantly reduce ECAR,68%,1.7 µg/mg,significantly decreased,approximately 8 fold,reduced CD86 expression,did not significantly decrease,,
,,,bc2: bovine collagen type II (bc2) antigen,,,60%,3 µg/mg,,,,,60 % (wt/wt),3 µg/mg
